According to publication PMC6154586 (Molecules : A Journal of Synthetic Chemistry and Natural …, 2017):

Assays:
Type in all cases: cell-based
Details in all cases: human
[1] = in vitro cytotoxicity bioassay, MCF-7
Method: (§1) These two experiments were conducted according to reference procedures.

[2] = in vitro cytotoxicity bioassay, MDA-MB-435
Method: as §1

[3] = in vitro cytotoxicity bioassay, HepG2
Method: as §1

[4] = in vitro cytotoxicity bioassay, PC-3
Method: as §1

[5] = MCF-7 cells (breast cancer cell line)
[6] = MDA-MB-435 cells (breast cancer cell line)
[7] = HepG2 cells (hepatoma cell line)
[8] = PC-3 cells (prostatic cancer cell line)

Measured: IC50

C=C1C2(CC(O)C(=O)OC2(C)C)CC(OC(C)=O)C2(C)C13OC14C(=O)OC(C)(C(=C)C12C(=O)OC4C)C3OC(C)=O (stereo not shown) [Compound 1, 2-hydroacetoxydehydroaustin]
> 50 µM: [1]; [5] | [2]; [6] | [3]; [7] | [4]; [8]

C=C1[C@]2(C)C(=O)[C@]3(O)[C@@H](C)OC(=O)[C@]13[C@@]1(C)CC[C@@]3(C=CC(=O)OC3(C)C)C(C)=C1[C@@H]2OC(C)=O [Compound 2, 11-acetoxyisoaustinone]
> 50 µM: [1]; [5] | [2]; [6] | [3]; [7] | [4]; [8]

C=C1[C@@]2(C)CC3=C(C)[C@]4(C=CC(=O)OC4(C)C)CC[C@]3(C)[C@@]13C(=O)O[C@H](C)[C@@]3(O)C2=O [Compound 3, isoaustinol]
> 50 µM: [1]; MCF-7 | [2]; MDA-MB-435 | [3]; HepG2 | [4]; PC-3

C=C1[C@@]23C(=O)O[C@H](C)[C@@]2(O)C(=O)O[C@]1(C)[C@@H](OC(C)=O)C1=C(C)[C@]2(C=CC(=O)OC2(C)C)CC[C@@]13C [Compound 4, austin]
> 50 µM: [1]; MCF-7 | [2]; MDA-MB-435 | [3]; HepG2 | [4]; PC-3

C=C1[C@@]23C(=O)O[C@H](C)[C@@]2(O)C(=O)O[C@]1(C)[C@@H](O)C1=C(C)[C@]2(C=CC(=O)OC2(C)C)CC[C@@]13C [Compound 5, austinol]
> 50 µM: [1]; [5] | [2]; [6] | [3]; [7] | [4]; [8]

C=C1[C@@]23C(=O)O[C@H](C)[C@]24O[C@@]2(C(=C)[C@]5(C=CC(=O)OC5(C)C)C[C@@H](OC(C)=O)[C@]32C)[C@H](OC(C)=O)[C@@]1(C)OC4=O [Compound 6, acetoxydehydroaustin]
> 50 µM: [1]; MCF-7 | [2]; MDA-MB-435 | [3]; HepG2 | [4]; PC-3

C=C1[C@@]23C(=O)O[C@H](C)[C@]24O[C@@]2(C(=C)[C@]5(C=CC(=O)OC5(C)C)CC[C@]32C)[C@H](OC(C)=O)[C@@]1(C)OC4=O [Compound 7, dehydroaustin]
> 50 µM: [1]; MCF-7 | [2]; MDA-MB-435 | [3]; HepG2 | [4]; PC-3

C=C1[C@@]23C(=O)O[C@H](C)[C@]24O[C@@]2(C(=C)[C@]5(C=CC(=O)OC5(C)C)CC[C@]32C)[C@H](O)[C@@]1(C)OC4=O [Compound 8, dehydroaustinol]
> 50 µM: [1]; MCF-7 | [2]; MDA-MB-435 | [3]; HepG2 | [4]; PC-3

C=C1[C@@]2(C)C[C@H]3[C@]4(C)C=CC(=O)OC(C)(C)[C@H]4CC[C@]3(C)[C@]1(C(=O)OC)C(=O)[C@@](C)(O)C2=O [Compound 9, preaustinoid A2]
> 50 µM: [1]; [5] | [2]; [6] | [3]; [7] | [4]; [8]

C=C1[C@@]23C(=O)O[C@H](C)[C@]24O[C@@]2(C(=C)[C@]5(CCC(=O)OC5(C)C)C[C@@H](OC(C)=O)[C@]32C)[C@H](OC(C)=O)[C@@]1(C)OC4=O [Compound 10, 1,2-dihydro-acetoxydehydroaustin B]
> 50 µM: [1]; [5] | [2]; [6] | [3]; [7] | [4]; [8]
